Measurements: ChEMBL document CHEMBL1287683, “Highly brominated metabolites from marine red alga Laurencia similis inhibit protein tyrosine phosphatase 1B” (Bioorg Med Chem Lett, 2010)

Molecular target: T1, Tyrosine-protein phosphatase non-receptor type 1 (Homo sapiens, UniProt P18031)
T1 sequence (P18031 whole entry): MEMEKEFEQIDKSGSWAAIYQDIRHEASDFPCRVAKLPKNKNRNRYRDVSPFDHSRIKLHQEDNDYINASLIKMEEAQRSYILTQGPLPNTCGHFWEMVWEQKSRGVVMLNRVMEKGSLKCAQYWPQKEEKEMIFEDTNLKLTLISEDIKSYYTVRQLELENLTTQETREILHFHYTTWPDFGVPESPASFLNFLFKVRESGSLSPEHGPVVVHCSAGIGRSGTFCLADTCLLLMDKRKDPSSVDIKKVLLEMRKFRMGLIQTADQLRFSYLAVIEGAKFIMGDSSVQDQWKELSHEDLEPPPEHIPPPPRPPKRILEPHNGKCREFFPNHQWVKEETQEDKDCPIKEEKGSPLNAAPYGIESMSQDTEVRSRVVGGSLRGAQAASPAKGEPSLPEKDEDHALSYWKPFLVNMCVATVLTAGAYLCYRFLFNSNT
Assay: Inhibition of protein tyrosine phosphatase 1B

| IC50 [µM] | SMILES |
| --- | --- |
| 3.82 | COc1cc(C(=O)c2c(Br)c(Br)c(OC)c(OC)c2Br)c(Br)c(Br)c1OC |
| 5.78 | Cc1cc(C)c(Oc2cc(Br)cc(Br)c2Br)c(Br)c1 |
| 118 | BrCc1cc(Br)c2cc(NBr)c(Br)cc2c1Br |

Second part, the molecule before the results:

| SMILES | IC50 [µM] |
| --- | --- |
| BrCc1cc2cc(Br)c(NBr)cc2c(Br)c1Br | 127 |
| BrCc1cc(Br)c2cc(NBr)c(Br)c(Br)c2c1 | 185 |
